Values after ≈ are worked out from the molar mass of the structure shown. Values joined by “and” are separate entries in the source; they are usually repeats but may differ in a detail not shown here. Equal values may be shown once. Read-outs that look alike come from different tables or passages of the source.
Tests used:
MDA-MB-231 cells = settings: cited from earlier work
HL-60 cells = settings: cited from earlier work
[1] = test system: human tumor (MDA-MB-231, EJ, K-562, HL-60 and HL-60/DOX) cell lines; experiment: MTT cytotoxicity test, tumor cell line panel; type: cell-based; settings: Homo sapiens; average IC50 of all chemo-sensitive tested tumor cell lines; read-out: x
Text: (§1) The group of human cell lines used in this study were represented by the tumor cell lines MDA-MB (breast carcinoma), EJ (urinary bladder carcinoma), K-562 (chronic myeloid leukemia), HL-60 (acute pre-myeloid leukemia), HL-60/DOX (multi-drug resistant HL-60 cell line, with over expression of MRP-1) and the non-tumorigenic cell lines HEK-293 (embryonic kidney cells) and EA.hy926 (vascular endothelial cells). EJ, HL60 and EA.hy926 were purchased from American Type Culture Collection (ATCC) (Manassas, Virginia). The other cell lines were purchased from the German Collection of Microorganisms and Cell Cultures (DSMZ GmbH, Braunschweig, Germany). HL-60/DOX cell lines were generated by periodically treating HL-60 cells with anthracyclins. The conditions in which the cell culture flasks were maintained were as follows: 37 °C in an incubator “BB 16-Function Line” Heraeus (Kendro, Hanau, Germany) with 5% CO2 humidified atmosphere. The growth medium was 90% RPMI-1640, supplemented with 10% FBS and 2 mM L-glutamine. MDA-MB-231, EJ, HEK-293 and EA.hy926 cells were maintained as adherent monolayer cultures while all the other (leukemic) cell lines were grown as suspension type cultures. Cells were maintained in log phase: the adherent cell lines were subjected to trypsinization 1–2 times a week and the leukemic cell lines were passaged 2–3 times a week by removing of part of the cellular suspension and substituting it with fresh medium.
(§2) The evaluation of cytotoxic activity was conducted by MTT test as described previously. The median inhibitory concentration (IC50) values which represent the half-maximal concentration values were calculated from sigmoidal concentration–response curves, using non-linear regression analysis (Curve fit, GraphPad Prizm 5.0 software, GraphPad Software Inc., San Diego, CA, USA). The selectivity index was calculated as the ratio of the IC50 of a non-cancerous line (HEK-293 or EA.hy926) and the average IC50 of all chemosensitive tested tumor cell lines (x). Therefore, SI=IC50HEK-293/IC50x . The resistance index (RI) was calculated as the ratio of IC50 of the multi-drug resistant HL-60/DOX cell line and the IC50 of its parent cell line: RI=IC50HL-60/DOX/IC50HL-60 .

HL-60 [2] = experiment: Antiproliferative test (NCI methodology); type: cell-based, human; settings: for TGI: HL-60, total growth inhibition; for GI50: Homo sapiens, HL-60, MTT readout
Text: as §1
(§3) The test was performed according the methodology of National Cancer Institute (NCI), USA [116]. Briefly, cells were seeded into 96-well plates in the same way as for an MTT test and after 24 h, the absorption of one plate of each cell line was measured as in the MTT assay described above, to represent a measurement of the cell population at the time of drug-addition (Tz). The rest of the plates were treated with the tested compounds and the experiment for them continued as the MTT-method. Using the absorbance measurements [(Tz, untreated control growth (C) and test growth in the present of the compounds (Ti)], the percentage growth is calculated at each of the tested concentrations of the compounds. Percentage growth inhibition (GI) is calculated as GI%=Ti−Tz/C−Tz×100 for concentrations for which Ti ≥ Tz. For concentrations in which Ti < Tz it is calculated as GI%=Ti−Tz/Tz×100 . Two dose parameters are calculated for each experimental agent. Growth inhibition of 50% (GI50) is calculated from Ti−Tz/C−Tz×100=50 . This is the drug concentration resulting in a 50% reduction in the net protein increase (as measured by MTT-test) in control cells during the drug incubation. The drug concentration resulting in total growth inhibition (TGI) is calculated from Ti = Tz.

MDA-MB-231 [3] = experiment: Antiproliferative test (NCI methodology); type: cell-based, human; settings: for GI50: Homo sapiens, MDA-MB-231, MTT readout; for TGI: MDA-MB-231, total growth inhibition
Text: as §1, §3

K-562 [4] = experiment: Antiproliferative test (NCI methodology); type: cell-based, human; settings: for GI50: Homo sapiens, K562, K-562, MTT readout; for TGI: K-562, total growth inhibition
Text: as §1, §3

MRSA = settings: growth of MRSA; cited from earlier work
HL-60 [5] = experiment: MTT cytotoxicity test; type: cell-based, human; settings: Homo sapiens, HL-60, 72 h exposure
Text: as §1, §2

MDA-MB-231 [6] = experiment: MTT cytotoxicity test; type: cell-based, human; settings: Homo sapiens, MDA-MB-231, 72 h exposure
Text: as §1, §2

EA.hy926 = experiment: MTT cytotoxicity test; type: cell-based, human; settings: Homo sapiens, EA.hy 926, EA.hy926, 72 h exposure
Text: as §1, §2

HEK-293 = experiment: MTT cytotoxicity test; type: cell-based, human; settings: Homo sapiens, HEK293, HEK-293, 72 h exposure
Text: as §1, §2

HL-60/DOX = experiment: MTT cytotoxicity test; type: cell-based, human; settings: Homo sapiens, 72 h exposure
Text: as §1, §2

K-562 [7] = experiment: MTT cytotoxicity test; type: cell-based, human; settings: Homo sapiens, K562, K-562, 72 h exposure
Text: as §1, §2

EJ = experiment: MTT cytotoxicity test; type: cell-based, human; settings: Homo sapiens, 72 h exposure
Text: as §1, §2

procaspase 9 = experiment: Western blot, procaspase 9; type: cell-based, human; settings: MDA-MB-231 and HL60/DOX
Experimental: (§4) Next, the samples were lysed on ice with a buffer containing 100 mM Tris–HCl at pH 8.0, 4% SDS, 20% glycerol, 1% Na3VO4, 200 mM dithiothreitol (DTT) (Sigma-Aldrich, St. Louis, MO, USA) and protease inhibitor (Roche, Basel, Switzerland). Then the cell lysate was boiled for 15 min and centrifuged at 13,000 rpm for 10 min at 4 °C. Before DTT addition, aliquot samples of 10 μL were taken from the lysates. Their protein concentrations were determined using a BCA protein assay kit (ThermoFisher Scientific, Waltham, MA, USA) after dilution 5× with H2O. Subsequently, the samples were subjected to denaturing SDS-PAGE electrophoresis and then transferred to PVDF membrane (Santa Cruz Biotechnology, USA). After this, the blots were fixed with blocking solution (5% w/v nonfat dried milk powder, dissolved in TBS) and incubated with specific primary antibodies: mouse procaspase-9 (sc-17784), mouse Bcl-2 (C-2, sc-7382) and mouse β-actin (sc-8432). The incubation was either overnight at 4 °C or for 150 min at room temperature. After washing, the membranes were incubated for 45 min with horseradish peroxidase conjugated secondary goat anti-mouse antibody (sc-2005) or mouse IgG kappa antibody (sc-516102) (Santa Cruz Biotechnology, Santa Cruz, CA, USA). […] This densitometry analysis of the blots was calculated by Quantity One software version 4.6.9 (Bio-Rad Laboratories, Hercules, CA, USA). […]

[8] = test system: Enterococcus faecalis (ATCC 29212); experiment: MIC by broth microdilution; type: cell-based; settings: ATCC29212, read-out: MIC
Text: (§5) The Gram-positive bacterial strains that were examined for susceptibility were: Staphylococcus aureus (ATCC 29213, American Type Cell Culture Collection, Manassas, VA, USA), Staphylococcus aureus—MRSA (NBIMCC 8327-resistant to methicillin and oxacillin, National Bulgarian Collection for Industrial Microorganisms and Cell Cultures, Sofia, Bulgaria), Enterococcus faecalis (ATCC 29212) and Streptococcus pyogenes (SAIMC 10535, Collection of the Stephan Angeloff Institute of Microbiology, Sofia, Bulgaria). The only Gram-negative bacterial strain used was Escherichia coli (ATCC 35218). Bacteria were maintained in Trypticase Soy Broth (TSB, Himedia, India) at 37 °C, aerobic conditions. For the experiments brain heart infusion (BHI) broth (#M210 HiMedia, Mumbai, India) was used for E. faecalis and S. pyogenes and Mueller Hinton broth (MHB, #M0405B) from Thermo Scientific-Oxoid (Basingstoke, UK)—for all other strains.
(§6) BMD was performed according to the following protocol of ISO 20776/1-2006 [117]. A bacterial suspension with density of 10^8 CFU/mL (0.5 McFarland standard, OD600) was prepared from an overnight grown liquid bacterial culture homogenized over vortex and brought to a working bacterial suspension (WBS) with concentration of 5×10^5 CFU/mL by being diluted 200× with MHB or BHI broth and homogenized over vortex again. Two-fold serial dilutions of compounds 3–5 was prepared in 96-well round bottom plates to a volume of 50 μL and final range of concentrations 100–0.2 μg/mL. Stock solutions were dissolved in ethanol and MHB was used as diluent and as test for absence of contamination. Three wells were left as blank samples and 6 wells were left for control samples. An equivalent volume (50 μL) of the WBS was inoculated to each well in the aforementioned plates achieve final bacterial density of […] with the exception of the blank wells. After 18–24 h incubation under aerobic standardized conditions at 37 °C the plates were examined. […] Antibiotics dissolved in sterile distilled water were used as referent positive controls. They were penicillin G (PEN, #B0500000, Merck KGaA, Darmstadt, Germany) for E. faecalis and S. pyogenes, gentamicin (GEN, #15750-037, 50 mg/mL, Gibco, Paisley, UK) for all bacteria except S. pyogenes and ciprofloxacin (CIP, Ciproflav:10 mg/mL, Polfa S.A. Warsaw Pharmaceutical Works, Starogard Gdanski, Poland) for E. faecalis. The range of concentrations were 0.004–2 mg/L for PEN, 0.008–4 mg/L for GEN and 0.005–2 mg/L for CIP. The requirements of EUCAST (European Committee on Antimicrobial Susceptibility Testing) for their MICs were followed for discussing the results. In the end the plates which contained active agents were subjected to assessment of the dehydrogenase activity of the bacteria.

[9] = test system: Streptococcus pyogenes (SAIMC 10535); experiment: MIC by broth microdilution; type: cell-based; settings: read-out: MIC
Text: as §5, §6

[10] = test system: Staphylococcus aureus (ATCC 29213); experiment: MIC by broth microdilution; type: cell-based; settings: ATCC29213, Staphylococcus aureus, read-out: MIC
Text: as §5, §6

[11] = test system: Staphylococcus aureus—MRSA (NBIMCC 8327); experiment: MIC by broth microdilution; type: cell-based; settings: read-out: MIC
Text: as §5, §6

K-562 cells = settings: cited from earlier work
[12] = test system: NorA multidrug efflux pumps; parameters: method as in PMID 24119569; settings: S. aureus; cited from earlier work
Bcl-2 = experiment: Western blot, Bcl-2; type: cell-based, human; settings: MDA-MB-231 and HL60/DOX
Experimental: as §4

## hyperatomarin
MDA-MB-231 cells
  IC50: 0.86 µM

## hyphenrone R
HL-60 cells
  IC50: 3.3 µM

## CC(C)=CCC/C(C)=C/COc1cc(O)cc(O)c1C(=O)C(C)C [Compound 1, (E)-1-[2-{(3,7-dimethylocta-2,6-dien-1-yl)oxy}-4,6-dihydroxyphenyl]-2-methylpropan-1-one]
[1]
  IC50: 14.5 µM
HL-60 [2]
  TGI: 9.39 µM
  GI50: 3.79 µM
MDA-MB-231 [3]
  GI50: 10.4 µM
  TGI: 18.56 µM
K-562 [4]
  GI50: 5.2 µM
  TGI: 11.90 µM
MRSA
  MIC50: 1.14 µg/mL (≈ 3.43 µM)
HL-60 [5]
  IC50: 16.6 ± 3.3 µM
MDA-MB-231 [6]
  IC50: 24.9 ± 3.2 µM
EA.hy926
  IC50: 6.73 ± 0.9 µM
HEK-293
  IC50: 14.7 ± 2.2 µM
HL-60/DOX
  IC50: 5.59 ± 0.4 µM
K-562 [7]
  IC50: 9.05 ± 0.8 µM
EJ
  IC50: 7.01 ± 1.3 µM
Procaspase 9
  degradation of the precursor caspase 9 (in words): not any observed decrease

## CC1(C)S[C@@H]2[C@H](NC(=O)Cc3ccccc3)C(=O)N2[C@H]1C(=O)O [Penicillin, penicillin G, reference compound]
[8]
  MIC: 2.5 µg/mL and 7.48 µM
[9]
  MIC: 0.08 µg/mL and 0.24 µM

## COc1cc([C@@H]2c3cc4c(cc3[C@@H](O[C@@H]3O[C@@H]5CO[C@@H](C)O[C@H]5[C@H](O)[C@H]3O)[C@H]3COC(=O)[C@H]23)OCO4)cc(OC)c1O [Etoposide, reference compound]
HL-60 [5]
  IC50: 1.27 ± 0.4 µM
MDA-MB-231 [6]
  IC50: 8.42 ± 1.3 µM
HL-60/DOX
  IC50: 42.3 ± 2.7 µM
K-562 [7]
  IC50: 2.34 ± 0.7 µM
EJ
  IC50: 5.4 ± 1.3 µM

## CNC(C)C1CCC(N)C(OC2C(N)CC(N)C(OC3OCC(C)(O)C(NC)C3O)C2O)O1 (centres unmarked) [Gentamicin, gentamicin, reference compound]
[8]
  MIC: 8 µg/mL and 16.8 µM
[10]
  MIC: 0.25 µg/mL and 0.52 µM
[11]
  MIC: 0.25 µg/mL and 0.52 µM

## hyperbeanol D
K-562 cells; K-562 cells
  IC50: 21 µM

## hyperbeanol B
K-562 cells; K-562 cells
  IC50: 17 µM

## CC[C@H](C)C(=O)c1c(O)cc(O)cc1OC/C=C(\C)CCC=C(C)C [Compound 2, olympicin A]
[1]
  IC50: 11.3 µM
[12]
  inhibition of efflux from NorA multidrug efflux pumps: inhibited the efflux
HL-60 [2]
  TGI: 81.63 µM
  GI50: 72.6 µM
MDA-MB-231 [3]
  GI50: 1.07 µM
  TGI: 2.54 µM
K-562 [4]
  GI50: 20.3 µM
  TGI: 23.49 µM
Bcl-2
  degradation of the antiapoptotic protein Bcl-2 (in words): degradation
MRSA
  IC50: 1.80 µg/mL (≈ 5.2 µM)
HL-60 [5]
  IC50: 13.8 ± 1.8 µM
MDA-MB-231 [6]
  IC50: 2.95 ± 0.4 µM
EA.hy926
  IC50: 34 ± 6.5 µM
HEK-293
  IC50: 22.5 ± 3.8 µM
HL-60/DOX
  IC50: 1.96 ± 0.2 µM
K-562 [7]
  IC50: 22.9 ± 4 µM
EJ
  IC50: 5.61 ± 0.5 µM

## Hyperisampsin M
HL-60 cells
  IC50: 1.4 µM

## hyperisampsin J
HL-60 cells
  IC50: 0.56 µM

## hyperforin
K-562 cells; K-562
  IC50: 3.2 µM
